{
  "source": "EPA's ToxRefDB 2",
  "key": {"[1]": {"system": "mouse", "settings": "Subchronic oral toxicity in rodents, b6c3f1, Water, dose end: 13 week, group: systemic"}, "[2]": {"system": "rat", "settings": "Subchronic oral toxicity in rodents, fischer, Water, dose end: 25 week, group: systemic, systemic / in life observation / body weight / body weight gain"}, "[3]": {"system": "rat", "settings": "Chronic toxicity; fischer; Oral; Water; dose end: 104 week; group: systemic; systemic / pathology microscopic / mammary gland / fibroadenoma"}, "[4]": {"system": "mouse", "settings": "Chronic toxicity, b6c3f1, Oral, Water, dose end: 104 week, group: systemic"}, "[5]": {"system": "rat", "settings": "Sub-acute repeat dose toxicity; wistar; Injection; Intravenous; dose end: 28 day; group: systemic; systemic / clinical chemistry / calcium / calcium"}, "[6]": {"system": "mouse", "settings": "Combined chronic toxicity/carcinogenicity; other; Oral; Feed; dose end: 365 day; group: systemic; systemic / pathology microscopic / blood / lymphoma malignant"}, "[7]": {"system": "rat", "settings": "Combined chronic toxicity/carcinogenicity; fischer; Oral; Feed; dose end: 365 day; group: systemic; systemic / in life observation / body weight / body weight"}, "[8]": {"system": "rat", "settings": "Subchronic oral toxicity in rodents, sprague dawley, Feed, dose end: 90 day"}, "[9]": {"system": "mouse", "settings": "Carcinogenicity; cd1; Oral; Feed; dose end: 18 month; group: systemic; systemic / in life observation / body weight / body weight + systemic / in life observation / mortality / mortality"}, "[10]": {"system": "rat", "settings": "Multigenerational reproductive toxicity study, sprague dawley, Oral, Feed, dose end: 2 generation"}, "[11]": {"system": "dog", "settings": "Chronic toxicity, beagle, Oral, Feed, dose end: 52 week"}, "[12]": {"system": "rat", "settings": "Prenatal developmental toxicity study, other, Oral, Gavage/Intubation, dose end: 16 GD"}, "[13]": {"system": "rat", "settings": "Subchronic oral toxicity in rodents; wistar; Inhalation; Whole-Body; dose end: 90 day; group: systemic; systemic / clinical chemistry / alkaline phosphatase (alp/alk) / alkaline phosphatase (alp/alk) + systemic / clinical chemistry / lactic …"}, "[14]": {"system": "rat", "settings": "Prenatal developmental toxicity study, sprague dawley, Inhalation, Whole-Body, dose end: 20 GD"}, "[15]": {"settings": "systemic / in life observation / body weight / body weight gain + systemic / in life observation / mortality / mortality + systemic / …"}, "[16]": {"settings": "systemic / pathology microscopic / blood / lymphoma malignant"}, "[17]": {"settings": "systemic / pathology microscopic / blood / lymphoma malignant + systemic / in life observation / body weight / body weight"}, "[18]": {"settings": "group: cholinesterase, cholinesterase / cholinesterase / cholinesterase / brain cholinesterase (che) + cholinesterase / cholinesterase / cholinesterase / …"}, "[19]": {"settings": "group: systemic, systemic / in life observation / body weight / body weight + systemic / in life observation / clinical signs / abnormal gait + systemic / in…"}, "[20]": {"settings": "group: offspring, systemic / in life observation / body weight / offspring (pup) weight"}, "[21]": {"settings": "group: offspring, systemic / in life observation / body weight / offspring (pup) weight + developmental / offspring survival late / [other] / [other] + …"}, "[22]": {"settings": "group: parental, systemic / in life observation / body weight / body weight + systemic / in life observation / body weight / body weight gain + systemic / in…"}, "[23]": {"settings": "group: cholinesterase, cholinesterase / cholinesterase / cholinesterase / brain cholinesterase (che)"}, "[24]": {"settings": "group: cholinesterase, cholinesterase / cholinesterase / cholinesterase / brain cholinesterase (che) + cholinesterase / cholinesterase / cholinesterase / plasma …"}, "[25]": {"settings": "group: systemic, systemic / in life observation / body weight / body weight + systemic / in life observation / body weight / body weight gain + systemic / in…"}, "[26]": {"settings": "group: systemic, systemic / in life observation / body weight / body weight gain"}, "[27]": {"settings": "group: developmental, systemic / in life observation / body weight / fetal weight"}, "[28]": {"settings": "group: maternal, systemic / in life observation / body weight / body weight gain + systemic / in life observation / clinical signs / tremors + systemic / in …"}, "[29]": {"settings": "group: maternal, systemic / in life observation / body weight / body weight gain + systemic / in life observation / food consumption / food consumption"}},
  "data": [
    {"smiles": "O=C1CCCCC1", "note": "[Cyclohexanone]", "values": [
      {"measurement": "LEL", "setting": "[1]; systemic / in life observation / body weight / body weight gain", "result": 3330, "unit": "mg/kg/day"},
      {"measurement": "LOAEL", "setting": "[1]; [15]", "result": "> 6270", "unit": "mg/kg/day"},
      {"measurement": "NEL", "setting": "[1]; [15]", "result": 1730, "unit": "mg/kg/day"},
      {"measurement": "NOAEL", "setting": "[1]; [15]", "result": "≥ 6270", "unit": "mg/kg/day"},
      {"measurement": "LEL", "setting": "[2]", "result": 325, "unit": "mg/kg/day"},
      {"measurement": "LOAEL", "setting": "[2]", "result": "> 325", "unit": "mg/kg/day"},
      {"measurement": "NEL", "setting": "[2]", "result": 235, "unit": "mg/kg/day"},
      {"measurement": "NOAEL", "setting": "[2]", "result": "≥ 325", "unit": "mg/kg/day"},
      {"measurement": "LEL", "setting": "[3]", "result": 325, "unit": "mg/kg/day"},
      {"measurement": "LOAEL", "setting": "[3]", "result": "> 325", "unit": "mg/kg/day"},
      {"measurement": "NEL", "setting": "[3]", "result": 165, "unit": "mg/kg/day"},
      {"measurement": "NOAEL", "setting": "[3]", "result": "≥ 325", "unit": "mg/kg/day"},
      {"measurement": "LEL", "setting": "[4]; [16]", "result": 867, "unit": "mg/kg/day"},
      {"measurement": "NEL", "setting": "[4]; [16]", "result": "< 867", "unit": "mg/kg/day"},
      {"measurement": "LOAEL", "setting": "[4]; [17]", "result": "> 3330", "unit": "mg/kg/day"},
      {"measurement": "NOAEL", "setting": "[4]; [17]", "result": "≥ 3330", "unit": "mg/kg/day"},
      {"measurement": "LEL", "setting": "[5]", "result": 100, "unit": "mg/kg/day"},
      {"measurement": "LOAEL", "setting": "[5]", "result": "> 100", "unit": "mg/kg/day"},
      {"measurement": "NEL", "setting": "[5]", "result": 50, "unit": "mg/kg/day"},
      {"measurement": "NOAEL", "setting": "[5]", "result": "≥ 100", "unit": "mg/kg/day"}
    ]},
    {"smiles": "CCCCCC(N)=O", "note": "[Hexanamide]", "values": [
      {"measurement": "LEL", "setting": "[6]", "result": 1500, "unit": "mg/kg/day"},
      {"measurement": "LOAEL", "setting": "[6]", "result": "> 1500", "unit": "mg/kg/day"},
      {"measurement": "NEL", "setting": "[6]", "result": "< 1500", "unit": "mg/kg/day"},
      {"measurement": "NOAEL", "setting": "[6]", "result": "≥ 1500", "unit": "mg/kg/day"},
      {"measurement": "LEL", "setting": "[7]", "result": 750, "unit": "mg/kg/day"},
      {"measurement": "LOAEL", "setting": "[7]", "result": "> 750", "unit": "mg/kg/day"},
      {"measurement": "NEL", "setting": "[7]", "result": "< 750", "unit": "mg/kg/day"},
      {"measurement": "NOAEL", "setting": "[7]", "result": "≥ 750", "unit": "mg/kg/day"}
    ]},
    {"smiles": "CNC(=O)ON=C(SC)C(=O)N(C)C", "note": "[Oxamyl]", "values": [
      {"measurement": "LEL", "setting": "[8]; [18]", "result": 14.9, "unit": "mg/kg/day"},
      {"measurement": "LOAEL", "setting": "[8]; [18]", "result": 14.9, "unit": "mg/kg/day"},
      {"measurement": "NEL", "setting": "[8]; [18]", "result": 2.1, "unit": "mg/kg/day"},
      {"measurement": "NOAEL", "setting": "[8]; [18]", "result": 2.1, "unit": "mg/kg/day"},
      {"measurement": "LEL", "setting": "[8]; [19]", "result": 14.9, "unit": "mg/kg/day"},
      {"measurement": "LOAEL", "setting": "[8]; [19]", "result": 14.9, "unit": "mg/kg/day"},
      {"measurement": "NEL", "setting": "[8]; [19]", "result": 2.1, "unit": "mg/kg/day"},
      {"measurement": "NOAEL", "setting": "[8]; [19]", "result": 2.1, "unit": "mg/kg/day"},
      {"measurement": "LEL", "setting": "[9]", "result": 7.5, "unit": "mg/kg/day"},
      {"measurement": "LOAEL", "setting": "[9]", "result": 7.5, "unit": "mg/kg/day"},
      {"measurement": "NEL", "setting": "[9]", "result": 3.75, "unit": "mg/kg/day"},
      {"measurement": "NOAEL", "setting": "[9]", "result": 3.75, "unit": "mg/kg/day"},
      {"measurement": "LEL", "setting": "[10]; [20]", "result": 5.2, "unit": "mg/kg/day"},
      {"measurement": "LOAEL", "setting": "[10]; [20]", "result": 5.2, "unit": "mg/kg/day"},
      {"measurement": "NEL", "setting": "[10]; [21]", "result": 1.7, "unit": "mg/kg/day"},
      {"measurement": "NOAEL", "setting": "[10]; [21]", "result": 1.7, "unit": "mg/kg/day"},
      {"measurement": "LEL", "setting": "[10]; [22]", "result": 5.2, "unit": "mg/kg/day"},
      {"measurement": "LOAEL", "setting": "[10]; [22]", "result": 5.2, "unit": "mg/kg/day"},
      {"measurement": "NEL", "setting": "[10]; [22]", "result": 1.7, "unit": "mg/kg/day"},
      {"measurement": "NOAEL", "setting": "[10]; [22]", "result": 1.7, "unit": "mg/kg/day"},
      {"measurement": "LOAEL", "setting": "[11]; [23]", "result": 1.56, "unit": "mg/kg/day"},
      {"measurement": "NOAEL", "setting": "[11]; [23]", "result": "< 1.56", "unit": "mg/kg/day"},
      {"measurement": "LEL", "setting": "[11]; [24]", "result": 1.56, "unit": "mg/kg/day"},
      {"measurement": "NEL", "setting": "[11]; [24]", "result": "< 1.56", "unit": "mg/kg/day"},
      {"measurement": "LOAEL", "setting": "[11]; [25]", "result": 4.5, "unit": "mg/kg/day"},
      {"measurement": "NOAEL", "setting": "[11]; [25]", "result": 1.46, "unit": "mg/kg/day"},
      {"measurement": "LEL", "setting": "[11]; [26]", "result": 1.56, "unit": "mg/kg/day"},
      {"measurement": "NEL", "setting": "[11]; [26]", "result": "< 1.56", "unit": "mg/kg/day"},
      {"measurement": "LEL", "setting": "[12]; [27]", "result": 0.5, "unit": "mg/kg/day"},
      {"measurement": "LOAEL", "setting": "[12]; [27]", "result": 0.5, "unit": "mg/kg/day"},
      {"measurement": "NEL", "setting": "[12]; [27]", "result": 0.2, "unit": "mg/kg/day"},
      {"measurement": "NOAEL", "setting": "[12]; [27]", "result": 0.2, "unit": "mg/kg/day"},
      {"measurement": "LEL", "setting": "[12]; [28]", "result": 0.8, "unit": "mg/kg/day"},
      {"measurement": "LOAEL", "setting": "[12]; [28]", "result": 0.8, "unit": "mg/kg/day"},
      {"measurement": "NEL", "setting": "[12]; [28]", "result": 0.5, "unit": "mg/kg/day"},
      {"measurement": "NOAEL", "setting": "[12]; [28]", "result": 0.5, "unit": "mg/kg/day"}
    ]},
    {"smiles": "Cc1ccc(C)c(C)c1", "note": "[1,2,4-Trimethylbenzene]", "values": [
      {"measurement": "LEL", "setting": "[13]", "result": 25, "unit": "ppm"},
      {"measurement": "LOAEL", "setting": "[13]", "result": "> 250", "unit": "ppm"},
      {"measurement": "NEL", "setting": "[13]", "result": "< 25", "unit": "ppm"},
      {"measurement": "NOAEL", "setting": "[13]", "result": "≥ 250", "unit": "ppm"},
      {"measurement": "LEL", "setting": "[14]; [27]", "result": 600, "unit": "ppm"},
      {"measurement": "LOAEL", "setting": "[14]; [27]", "result": "> 600", "unit": "ppm"},
      {"measurement": "NEL", "setting": "[14]; [27]", "result": 300, "unit": "ppm"},
      {"measurement": "NOAEL", "setting": "[14]; [27]", "result": "≥ 600", "unit": "ppm"},
      {"measurement": "LEL", "setting": "[14]; [29]", "result": 600, "unit": "ppm"},
      {"measurement": "LOAEL", "setting": "[14]; [29]", "result": "> 600", "unit": "ppm"},
      {"measurement": "NEL", "setting": "[14]; [29]", "result": 300, "unit": "ppm"},
      {"measurement": "NOAEL", "setting": "[14]; [29]", "result": "≥ 600", "unit": "ppm"}
    ]}
  ]
}
